According to patent US9102835B2, “Methods of using dyes in association with nucleic acid staining or detection and associated technology” (Biotium, Inc., priority 2005, dated 2015):
Entries after “also recorded” stand apart in the source; their conditions may differ.

Legend:
[1] = tested on: 1 kb Plus DNA Latter in agarose gel; experiment: Post-DNA gel staining
Experimental: Serial two-fold dilutions of 1 kb Plus DNA Latter from Invitrogen Co. (Carlsbad, Calif.) were made and the resulting DNA samples were loaded onto an agarose gel in four lanes from left to right with a loading of 200 ng, 100 ng, 50 ng, and 25 ng per lane, respectively. The DNA samples were electrophoretically separated in 1×TBE buffer using a standard protocol. The nucleic acid sample was loaded onto the gel from in four columns from left to right with a loading of 200 ng, 100 ng, 50 ng, and 25 ng per lane, respectively, and electrophoretically separated in 1×TBE buffer using a standard protocol. A stock solution of a Dye No. 20 of Table 1 in DMF at about 12 mM concentration was prepared. […] The agarose gel was submerged in the staining solution for approximately 30 minutes to stain the gel. The resulting gel was then viewed using a UV transilluminator with 254 nm excitation.
A similar procedure was followed to prepare post gel staining solutions of Dye No. 29 of Table 1, except that Dye No. 29 was used in place of Dye No. 20 and at various conditions, as now described. […] Identical DNA samples were prepared, loaded onto three separate agarose gels, and separated via standard gel electrophoreses, in the manner described above. Each of the three separate gels was then stained by immersion in a different one of the resulting gels for about 30 minutes. […]

[2] = cited from earlier work
[3] = tested on: Salmonella typhimurium bacteria, strain TA98; details: cited from earlier work
[4] = tested on: Salmonella typhimurium bacteria, strain TA98; experiment: Mutagenicity assay, Muta-ChromoPlate test kit (based on the Ames Test, bacterial reverse mutation); details: for Mutagenicity relative to the negative control: in the absence of S9 extract; for Positive wells: with S9 extract (rat liver); for Positive wells / Positive wells, Exp 1 / Positive wells, Exp 2: positive wells out of 36, TA98; for Positive wells, Exp 1 / Positive wells, Exp 2: without S9 extract
Source text: The test kit is based on the Ames Test, a bacterial reverse mutation test. The test employs a mutant strain, or several strains, of Salmonella typhimurium bacteria, carrying mutation(s) in the operon coding for histidine biosynthesis. When the bacteria are exposed to mutagenic agents under certain conditions, reverse mutation from amino acid (histidine) auxotrophy to prototrophy occurs. […] S9 extract is a rat liver extract that comprises various metabolic enzymes. The tests associated with the presence of S9 extract were undertaken to give information on the potential genotoxicity of the metabolized dyes. […] Each single test was carried out using 36 wells and the number of positive wells out of each 36 wells was taken as an indicator of the relative mutagenicity levels of the dye under the test conditions. As a negative control, bacteria were also incubated in the absence of a dye.
Mutagenicity assays were carried out using a Muta-ChromoPlate test kit from EBPI (Brampton, Ontario, Canada). […] A solution without a dye (zero dose level) was assayed in the absence and presence of S9 extract, as a control or negative control. S9 extract is a rat liver extract that comprises various metabolic enzymes. The tests associated with the presence of S9 extract were undertaken to provide information on the potential genotoxicity of the metabolized dyes. […] Each single test was carried out using 36 wells and the number of positive wells out of each 36 wells was taken as an indicator of the relative mutagenicity levels of the dye under the test conditions.

[5] = Stability in TBE buffer, optical density at absorption maximum over 24 hours; assay type: physicochemical; details: 1.2 μM in 1×TBE buffer, room temperature, monitored at 500 nm
Experimental: SYBR Gold 10,000× in DMSO from Molecular Probes, Inc. (Eugene, Oreg.) was diluted to 1× working concentration, as recommended by the manufacturer, in 1×TBE buffer. A stock solution of Dye No. 35 of Table 1 in DMSO (12 mM) was diluted to 1.2 μM in 1×TBE buffer. The optical density associated with each of the solutions was monitored at the absorption maximum of the dye (488 nm for SYBR Gold and 500 nm for Dye No. 35) over the course of a 24-hour period at room temperature.

[6] = Hydrolytic, thermal and storage stability in water, electrophoresis buffers and pre-cast gels; assay type: physicochemical
[7] = tested on: 1 kb Plus DNA Latter in agarose gel; experiment: Pre-cast DNA gel staining; details: 1.2 μM in TBE versus EB 1.3 μM; 300 nm UV
Experimental: An agarose gel solution (1% agarose) was prepared following a standard protocol (J. Roskams et al., Lab Ref: A Handbook of Recipes, Reagents, and Other Reference Tools for Use at the Bench, Cold Spring Harbor Laboratory Press, Cold Spring Harbor, N.Y., 2002). A stock solution of a Dye No. 35 (ET-27) of Table 1 in DMF at 12 mM concentration was prepared. An aliquot of the stock solution of dye was added to the gel solution, while it was hot, resulting in an effective working concentration of the dye of about 1.2 μM. The resulting solution was thoroughly mixed by swirling. The resulting gel solution was poured onto a gel slab to cast the gel. Serial two-fold dilutions of 1 kb Plus DNA Latter from Invitrogen Co. (Carlsbad, Calif.) were made and the resulting DNA samples were loaded onto the gel in four lanes from left to right with a loading of 200 ng, 100 ng, 50 ng, and 25 ng per lane, respectively. The DNA samples were electrophoretically separated in 1×TBE buffer using a standard protocol. The resulting gel was then viewed using a UV transilluminator with 300 nm excitation. The same procedure was followed using a stock solution of EB at about 0.5 μg/mL (or 1.3 μM) in DMF in place of the stock solution of Dye No. 35 of Table 1.
It should be noted that other dyes described herein may be prepared and employed in the manner described in this Example 49, or a similar manner.

[8] = pre-cast gel prepared with the dye

SMILES: C[n+]1c(C=C2C=CN(CCCCCC(=O)NCCCOCCOCCOCCCNC(=O)CCCCCN3C=CC(=Cc4sc5ccccc5[n+]4C)c4ccccc43)c3ccccc32)sc2ccccc21 [Dye No. 29, TOTO-13]
- Sensitivity in post-DNA gel staining versus SYBR Safe and SYBR Green I ([1]; dye 3.6 μM, SYBR dyes 1× in TBE, 200-25 ng DNA per lane, 254-nm UV transilluminator): substantially more sensitive than SYBR Safe and is as sensitive as SYBR Green I

SMILES: CCCN(CCCN(C)C)c1cc(/C=C2/Sc3ccccc3N2C)c2ccccc2[n+]1-c1ccccc1 [SYBR Green I]
- DNA band brightness in post-DNA gel staining ([1]; staining solution in 1×TBE that lacked NaCl): relatively weaker or less bright DNA bands overall
- Hydrolytic stability ([2]; aqueous solution, particularly buffers having a pH of 7 or more): hydrolytically unstable
- Time within which pre-cast gel is used before losing utility [2, 8]: 24 h

SMILES: CC[n+]1c(-c2ccccc2)c2cc(N)ccc2c2ccc(N)cc21 [EB, ethidium bromide, reference compound]
- Frame shift mutagenicity in Ames Test (known) [3]: known frame shift mutagen
- Mutagenicity relative to the negative control [4]: very weak mutagenicity
- Mutagenicity ([4]; in the presence of S9 extract): significantly greater mutagenicity than Dye No. 35
- Positive wells ([4]; 0.25 nmole): 22
- Positive wells ([4]; 2.5 nmoles): 17
- Positive wells ([4]; 25 nmoles): 16
- Positive wells, Exp 1 ([4]; 0.25 nmole): 0
- Positive wells, Exp 2 ([4]; 0.25 nmole): 0
- Positive wells, Exp 1 ([4]; 2.5 nmoles): 0
- Positive wells, Exp 2 ([4]; 2.5 nmoles): 3
- Positive wells, Exp 1 ([4]; 25 nmoles): 0
- Positive wells, Exp 2 ([4]; 25 nmoles): 3

SMILES: Nc1ccc2c(c1)c(-c1ccccc1)[n+](CCCCCC(=O)NCCCOCCOCCOCCCNC(=O)CCCCC[n+]1c(-c3ccccc3)c3cc(N)ccc3c3ccc(N)cc31)c1cc(N)ccc21 [Dye No. 35, ET-27]
- Absorbance over the 24-hour period [5]: relatively constant
- Time heated in a microwave oven without decomposition ([6]; dye in TBE buffer): 10 min
- Storage time of pre-cast gel without loss of performance [6, 8]: 3 months
- Time stable in an electrophoresis buffer, such as TBE buffer ([6]; room temperature): 6 months
- Sensitivity with respect to low level DNA, relative to EB [7]: more sensitive with respect to low level DNA
- Sensitivity with respect to shorter DNA fragments, relative to EB [7]: more sensitive with respect to shorter DNA fragments
- Toxicity and mutagenicity, overall statement ([4]; comparison of Dye No. 35 with EB): relatively low in toxicity and mutagenicity; also recorded: may be less mutagenic than EB
- Mutagenicity relative to the negative control [4]: very weak mutagenicity
- Positive wells ([4]; 0.25 nmole): 0
- Positive wells ([4]; 2.5 nmoles): 9
- Positive wells ([4]; 25 nmoles): 0
- Positive wells, Exp 1 ([4]; 0.25 nmole): 2
- Positive wells, Exp 2 ([4]; 0.25 nmole): 0
- Positive wells, Exp 1 ([4]; 2.5 nmoles): 1
- Positive wells, Exp 2 ([4]; 2.5 nmoles): 3
- Positive wells, Exp 1 ([4]; 25 nmoles): 1
- Positive wells, Exp 2 ([4]; 25 nmoles): 3
